Results reported in PubChem BioAssay (NCI).
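Results reflect a 48-hour exposure of cells in 96-well plates to compound at five concentrations. TGI: total growth inhibition.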

How the values were obtained:
Assay in all cases: NCI-60 cell line screen, 48 h
[1] = test system: CAKI-1 renal
[2] = test system: RXF 393 renal
[3] = test system: U251 CNS
[4] = test system: ACHN renal
[5] = test system: OVCAR-3 ovarian
[6] = test system: SK-MEL-28 melanoma
[7] = test system: EKVX NSCLC
[8] = test system: K-562 leukemia
[9] = test system: NCI-H23 lung
[10] = test system: COLO 205 colon
[11] = test system: SK-MEL-2 melanoma
[12] = test system: SR leukemia
[13] = test system: RPMI-8226 leukemia
[14] = test system: A549 NSCLC
[15] = test system: MCF7 breast
[16] = test system: SW-620 colon
[17] = test system: HCT-15 colon
[18] = test system: MOLT-4 leukemia
[19] = test system: SF-295 CNS
[20] = test system: HT29 colon
[21] = test system: SN12C renal
[22] = test system: BT-549 breast
[23] = test system: HL-60(TB) leukemia
[24] = test system: M14 melanoma
[25] = test system: SK-MEL-5 melanoma
[26] = test system: UACC-257 melanoma
[27] = test system: OVCAR-5 ovarian
[28] = test system: MDA-N
[29] = test system: MDA-MB-435
[30] = test system: A498 renal
[31] = test system: DU-145 prostate
[32] = test system: LOX IMVI melanoma
[33] = test system: SF-268 CNS
[34] = test system: NCI-H460 lung
[35] = test system: UO-31 renal
[36] = test system: IGROV1 ovarian
[37] = test system: MALME-3M melanoma
[38] = test system: NCI/ADR-RES ovarian
[39] = test system: PC-3 prostate
[40] = test system: KM12 colon
[41] = test system: CCRF-CEM leukemia
[42] = test system: OVCAR-8 ovarian
[43] = test system: TK-10 renal
[44] = test system: HCT-116 colon
[45] = test system: SNB-19 CNS
[46] = test system: SNB-75 CNS
[47] = test system: HCC-2998 colon
[48] = test system: HOP-92 NSCLC
[49] = test system: HOP-62 NSCLC
[50] = test system: 786-0 renal
[51] = test system: SF-539 CNS
[52] = test system: OVCAR-4 ovarian
[53] = test system: MDA-MB-231 breast
[54] = test system: NCI-H226 lung
[55] = test system: SK-OV-3 ovarian
[56] = test system: UACC-62 melanoma

Measured: TGI

CCOC(=O)C(NC(=O)C(CCCCNP(=O)(OCC)OCC)NC(=O)C(C)NC(C)=O)C(C)C (stereo not given)
not listed: [55] | [56]
> 100 µM: all other assays above

C[C@H]1C(=O)O[C@@H]1[C@H]1COC(C)(C)O1
not listed: [8] | [10] | [20] | [25] | [31] | [32] | [36] | [37] | [44] | [50]
> 100 µM: all other assays above
